From patent US10246463B2, “Hypoxia-inducible factor 1 (HIF-1) inhibitors” (The United States of America, as represented by the …, priority 2015, dated 2019)
Values after ≈ are worked out from the molar mass of the structure shown. Values joined by “and” are separate entries in the source; they are usually repeats but may differ in a detail not shown here. Identical values can stand only once. Like-named read-outs stand apart in the source and are kept apart here.

Columns and labels:
[1] = target: T1, p300 (CH1) / HIF-1α (C-TAD) interaction (Homo sapiens, UniProt Q09472+Q16665); test: p300 CH1 / HIF-1α C-TAD binding assay (DELFIA, europium anti-GST); conditions: for IC50: dose-response format of the screening assay
T1 construct: GST-p300-CH1 (aa 323-423); synthetic biotinylated HIF-1αC-TAD (aa 786-826; Peptide Protein Research Ltd., Fareham, UK)
T1 sequence (Q09472 323-423): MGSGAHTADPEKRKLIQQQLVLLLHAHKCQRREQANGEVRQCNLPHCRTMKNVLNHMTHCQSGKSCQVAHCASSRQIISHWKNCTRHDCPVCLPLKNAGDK
T1 sequence (Q16665 786-826): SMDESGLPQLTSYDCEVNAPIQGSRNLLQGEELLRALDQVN
Method: Binding of soluble CH1 to the immobilized C-TAD was measured by the fluorescence of a europium-tagged anti-GST antibody.
Bound GST-CH1 was detected using a europium-labeled antibody to GST (PerkinElmer Life Sciences). […] Plates were washed four times with TBST (50 mM Tris, 150 mM NaCl, 0.05% Tween 20, pH 8.0) buffer. […] After 2 h, plates were washed four times in TBST. DELFIA enhancement solution (PerkinElmer Life Sciences) was added and plates were placed on a rocker for 30 min, before reading with a Victor3 plate reader (PerkinElmer Life Sciences) or a Pherastar Plate Reader (BMG Labtech), using the europium setting under time-resolved fluorescence. Values were corrected for background and expressed as a percentage of controls (DMSO) to provide the percentage of CH1 binding.

[2] = test system: 456 protein kinase enzymes; test: commercial panel of 456 protein kinase enzymes (DiscoverRx); assay type: binding
Source text: (§1) In an effort to evaluate a broader range of potential activities of interest, compound 1 was screened against a commercial panel of 456 protein kinase enzymes and 32 bromodomain proteins (DiscoverRx, San Diego, Calif.), and it had no activity against any of these targets.

[3] = pKa determination by UV-Vis analysis at varied pH; assay type: physicochemical; conditions: aqueous buffers at varied pH, 0.1% DMSO, read-out: pKa of the titratable proton
Method: The cuvettes were allowed to equilibrate for 1 h before a UV-Vis curve was obtained. The pKa for 1 was determined by fitting Δ abs at 394 and 440 nm to a polynomial curve, as described previously (Yapici et al., J. Am. Chem. Soc. 2015, 137:1073-1080).

[4] = test system: P. falciparum W2 (chloroquine resistant); test: Antimalarial activity, plasmodial LDH assay, W2 strain; assay type: cell-based; conditions: for IC50: Plasmodium falciparum, read-out: IC50 against W2
Method: (§2) The antimalarial activity was determined against chloroquine sensitive (D6) and chloroquine resistant (W2) strains of P. falciparum by measuring plasmodial LDH (lactate dehydrogenase) activity according to the procedure of Makler and Hinrichs (Am. J. Trop. Med. Hyg. 1993, 48:205). A suspension of red blood cells infected with D6 or W2 strain of P. falciparum (200 μL, with 2% parasitemia and 2% hematocrit in RPMI 1640 medium supplemented with 10% human serum and 60 μg/mL Amikacin) was added to the wells of a 96-well plate containing 10 μL of serially diluted samples (plant extracts, column fractions or pure compounds). The plate was incubated at 37° C., for 72 h in a modular incubation chamber with 90% N2, 5% O2, and 5% CO2. Parasitic LDH activity was determined by mixing 20 μL of the incubation mixture with 100 μL of the Malstat reagent and incubating at room temperature for 30 min Twenty microliters of a 1:1 mixture of NBT/PES (nitro blue tetrazolium/phenazine ethosulfate) (Sigma, St. Louis, Mo.) was then added and the plate was further incubated in the dark for 1 h. The reaction was stopped by adding 100 μL of a 5% acetic acid solution and the absorbance was read at 650 nm. Artemisinin and chloroquine were included as the drug controls. IC50 values were computed from the dose response curves of growth inhibition.

[5] = test system: P. falciparum D6 (chloroquine sensitive); test: Antimalarial activity, plasmodial LDH assay, D6 strain; assay type: cell-based; conditions: for IC50: Plasmodium falciparum, read-out: IC50 against D6
Method: as §2

32 bromodomain proteins = test: commercial panel of 32 bromodomain proteins (DiscoverRx); assay type: binding
Source text: as §1

[6] = test system: HIF-1α activation in HCT116 cells; test: HRE luciferase reporter of HIF-1α activation in HCT116 cells under anoxic conditions; assay type: cell-based; conditions: FIG. 7
Method: Activation was monitored via a hypoxia response element (HRE) luciferase signal. When HIF-1α is activated, it results in an increased HRE luciferase signal. […] Data were analyzed using an ordinary one-way ANOVA with Dunnett's multiple comparisons test (reference group: DMSO.H). * P≤0.05, ** P≤0.01, *** P≤0.0001.

HCT116 cells = test: CCK-8 cytotoxicity in HCT116 cells under hypoxic conditions; assay type: cell-based; conditions: 18 h treatment, hypoxic conditions (0.5% O2), FIG. 8
Source text: Results are presented as the average cell viability number (% hypoxic control) of triplicate experiments ±S.E.M. (n=3-4).

NCI-60 cell line = NCI-60 cell line anticancer screen; assay type: cell-based; conditions: standard initial concentration of 40 μM
Stability in NMR solvent = assay type: physicochemical
[7] = read-out: IC50, blocking binding of soluble CH1 to immobilized C-TAD

Structure (SMILES): OC1(c2ccccc2)N=C2N=CC=C3c4ccccc4N=C1N32 (stereo not drawn) [EA-1]
- inhibition of CH1 (p300)/C-TAD (HIF-1α) interaction ([1]; even at high dose): no inhibition

Structure (SMILES): O=C(O)c1ccc(C2(O)N=C3N=CC=C4c5ccccc5N=C2N43)cc1 (stereo not drawn) [EA-2]
- IC50 ([1]; read-out: IC50, CH1 (p300)/C-TAD (HIF-1α) interaction (converted)): ~290 µM

Structure (SMILES): COc1ccc(C2(O)N=C3N=CC=C4c5ccccc5N=C2N43)cc1 (stereo not drawn) [Eudistidine A, eudistidine A]
- activity against 456 protein kinase enzymes [2]: no activity
- pKa [3]: 5.1 ± 0.1
- inhibition of HIF-1α binding to p300, comparison of salt forms and natural/synthetic material ([1]; FIGS. 5A-5E, 6A-6C, listed as natural eudistidine A, free base): similarly inhibit
- IC50 [1, 7]: ~75 µM and 75 µM
- % growth of W2 strain of P. falciparum ([4]; 528.89 ng/mL): 55%
- % growth of W2 strain of P. falciparum ([4]; 1586.67 ng/mL): 1%
- % growth of W2 strain of P. falciparum ([4]; 4760 ng/mL): 1%
- IC50 ([4]; W2, growth inhibition, 72 h): 0.58 µg/mL (≈ 1.76 µM)
- % growth of D6 strain of P. falciparum ([5]; 528.89 ng/mL): 72%
- % growth of D6 strain of P. falciparum ([5]; 1586.67 ng/mL): 6%
- % growth of D6 strain of P. falciparum ([5]; 4760 ng/mL): 2%
- IC50 ([5]; D6, growth inhibition, 72 h): 0.77 µg/mL (≈ 2.33 µM)
- activity against 32 bromodomain proteins (32 bromodomain proteins): no activity
- blocking of HIF-1α activation (HRE luciferase signal) [6]: block HIF-1α activation
- CCK-8 cytotoxicity/growth inhibitory activity (HCT116 cells): only modest cytotoxicity/growth inhibitory activity
- cytotoxic activity in NCI-60 screen (NCI-60 cell line): no significant cytotoxic activity

Structure (SMILES): O=c1nc2nccc3c4ccccc4nc1N23 [Eudistidine B, eudistidine B]
- inhibition of CH1 (p300)/C-TAD (HIF-1α) interaction ([1]; at a high dose of 250 μM): no inhibition

Structure (SMILES): COc1ccc(C2(c3nc(N)[nH]c3-c3ccc(O)cc3)N=C3N=CC=C4c5ccccc5N=C2N43)cc1 (stereo not drawn) [Eudistidine C, eudistidine C]
- IC50 [1, 7]: ~75 µM
- stability in DMSO-d6 (Stability in NMR solvent): somewhat unstable
- % growth of W2 strain of P. falciparum ([4]; 528.89 ng/mL): 75%
- % growth of W2 strain of P. falciparum ([4]; 1586.67 ng/mL): 22%
- % growth of W2 strain of P. falciparum ([4]; 4760 ng/mL): 6%
- IC50 ([4]; W2, growth inhibition, 72 h): 0.9 µg/mL (≈ 1.85 µM)
- % growth of D6 strain of P. falciparum ([5]; 528.89 ng/mL): 91%
- % growth of D6 strain of P. falciparum ([5]; 1586.67 ng/mL): 56%
- % growth of D6 strain of P. falciparum ([5]; 4760 ng/mL): 9%
- IC50 ([5]; D6, growth inhibition, 72 h): 1.7 µg/mL (≈ 3.49 µM)

Structure (SMILES): C[C@@H]1CC[C@H]2[C@@H](C)C(=O)O[C@@H]3O[C@@]4(C)CC[C@@H]1[C@]32OO4 [artemisinin, reference compound]
- IC50 ([4]; W2, growth inhibition, 72 h): 0.0041 µg/mL (≈ 0.0145 µM)
- IC50 ([5]; D6, growth inhibition, 72 h): 0.0072 µg/mL (≈ 0.0255 µM)

Structure (SMILES): CCN(CC)CCCC(C)Nc1ccnc2cc(Cl)ccc12 (stereo not drawn) [chloroquine, reference compound]
- IC50 ([4]; W2, 72 h): 0.161 µg/mL (≈ 0.503 µM)
- IC50 ([5]; D6, 72 h): 0.0154 µg/mL (≈ 0.0481 µM)
